Usually viability, T/C stands for the ratio of treated to control. Usually pIC50 stands for −log10 of the IC50, conventionally taken in molar units.

pIC50: −log10 of the molar value. Where “and” joins values, the source holds several entries; their conditions need not be identical. Equal values may be shown once. A value given as a limit tells only on which side of the number the result lay.

Consider eleven compounds from PubChem BioAssay AID2060350 (Molecular Pharmacology Branch, DTP, NCI, 2025).

The assay relates to PDC 521955-158-R6-J3 spheroids, viability. Nature of the assay: Anticancer human tumor 521955-158-R6-J3-PDC patient-derived pancreatic carcinoma cell line growth inhibition [TAK]. The conditions noted are these: spheroids with HUVEC and MSC; for viability, T/C: stronger effect = lower value. From the text:
Combinatorial screen of targeted agents with TAK-243 and ipatasertib in multi-cell type tumor spheroids
A high-throughput screen of multi-cell type tumor spheroids was designed to identify active combinations of targeted small molecules and TAK-243 or ipatasertib. Complex spheroids include a stromal component modeled by human endothelial cells (HUVEC) and fibroblasts modeled by human mesenchymal stem cells (MSCs). The concentration ranges selected for each drug and investigational agent were based upon clinically achievable concentrations if the clinical Cmax of the agent was known.
Compounds. The drugs and investigational agents: TAK-243 (785004), ipatasertib (767898), everolimus (733504), selumetinib (741078), bortezomib (756655), trametinib (758246), ixazomib (758254), vemurafenib (761431), dabrafenib (764134), sapanisertib (764658), alpelisib (765974), and copanlisib (816437), were obtained from the National Cancer Institute (NCI) Developmental Therapeutics Program Chemical Repository. The FDA-approved anticancer drug set is available from the NCI Developmental Therapeutics Program. […] The stock solutions were prepared in dimethyl sulfoxide (DMSO, Sigma-Aldrich, St. Louis, MO, cat. D2650) at 800-fold the tested concentration and stored at -70 degrees C prior to their use. All drugs and investigational agents were tested over a range starting from a high concentration at or near the clinical Cmax and decreasing in half-log increments. If the clinical Cmax for an agent had not been determined, the highest concentration tested was 10 microM.
NCI60 Cell Culture. NCI60 cell lines were obtained from the NCI Developmental Therapeutics Program Tumor Repository. For each lot of cells, the Repository performed Applied Biosystems AmpFLSTR Identifiler testing with PCR amplification to confirm consistency with the published Identifier STR profile for each cell line. Cells were kept in continuous culture for no more than 20 passages. The optimal seeding densities for each of the cell lines at each time point assessed were determined prior to performing the concentration response studies. Briefly, the NCI60 human tumor lines were grown as monolayers in RPMI 1640 medium supplemented with 10% FBS and 2 mmol/L L-glutamine.
An additional 2 lines were from the NCI60 cell line panel including melanomas, MALME-3M and SK-MEL-2. Pooled donor human umbilical vein endothelial cells (HUVEC, Lonza, cat. CC-2519) and human mesenchymal stem cells (hMSC, Lonza, cat. PT-2501) were purchased from Lonza (Walkersville, MD).
PDMR cell lines were grown in complete medium (DC medium): Dulbecco's modified Eagle's medium (DMEM)/F12 supplemented with 5% fetal bovine serum (FBS), 2 mM L-glutamine, 100 U/mL penicillin and 100 µg/ml streptomycin, 0.4 µg/ml hydrocortisone, 10 ng/ml epidermal growth factor (EGF) recombinant human protein, 24 µg/mL adenine, and 0.1 mg/mL primocin. During culture from frozen stock vials, PDMR cells were cultured in the same medium containing 10 µM Y-27632 (see Table 3). The PDCs were cultured in complete DMEM/F12 media without 10 microM Y-27632 dihydrochloride for at least two passages prior to the screen. The pooled donor HUVEC and hMSC were cultured in endothelial cell growth medium 2 (PromoCell, Heidelberg, Germany, cat. C-22011) and mesenchymal stem cell growth medium 2 (PromoCell, cat. C-28009), respectively. For all experiments, HUVEC and hMSC were used at passages </=5.
For the pre-screen, cell seeding densities were determined from a titration spanning the range from 5,000 to 313 cells per well. The mct-spheroids including 60% malignant cells, 25% HUVEC and 15% MSC dispensed as a mixture into U-bottom Ultra-Low Attachment 384-well plates (Corning, NY)
High-throughput Drug Combination Screening.
Prior to their inoculation into 384-well plates, malignant cells, HUVEC, and hMSC were removed from T flasks using TrypLE express (Thermo Fisher Scientific, cat. 12605036) and harvested by centrifugation for 5 min at 233 x g. […]
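Further: spheroids exposed to drugs for 7 days before readout.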

In the case of `CC(=O)Nc1cccc(-n2c(=O)n(C3CC3)c(=O)c3c(Nc4ccc(I)cc4F)n(C)c(=O)c(C)c32)c1`, the viability, T/C reads like this: (compound 94.9 pM) 98.2% and 112%; (compound 0.0003 µM) 100% and 90.8%; (compound 0.000949 µM) 98.2% and 92.1%; (compound 0.003 µM) 94.2% and 82%; (compound 0.00949 µM) 72.4% and 68.3%; (compound 0.03 µM) 47% and 47.1%. Further, the pIC50 (curve of compound) is 7.58 and 7.53.

With `CC(C)(C)c1nc(-c2cccc(NS(=O)(=O)c3c(F)cccc3F)c2F)c(-c2ccnc(N)n2)s1`, the viability, T/C is, setting by setting: (compound 0.0316 µM) 111% and 97.3%; (compound 0.1 µM) 121% and 111%; (compound 0.316 µM) 135% and 114%; (compound 1 µM) 116% and 111%; (compound 3.16 µM) 108% and 98.3%; (compound 10 µM) 139% and 118%. For the same compound, for the setting “curve of compound”, the pIC50 was below 5.00.

For `CC(C)CC(NC(=O)C(Cc1ccccc1)NC(=O)c1cnccn1)B(O)O` (stereo not drawn), the viability, T/C runs as follows: (compound 31.6 pM) 101% and 120%; (compound 0.0001 µM) 97.6% and 107%; (compound 0.000316 µM) 91.6% and 103%; (compound 0.001 µM) 108% and 93.6%; (compound 0.00316 µM) 111% and 87.4%; (compound 0.01 µM) 33.2% and 102%. Also, the negative logarithm of the IC50 (pIC50) (curve of compound) is 8.12 and < 8.00.

Turning to `CC(C)CC(NC(=O)CNC(=O)c1cc(Cl)ccc1Cl)B1OC(=O)CC(CC(=O)O)(C(=O)O)O1` (stereo not drawn), the viability, T/C (compound 0.000316 µM) is 105% and 101%; the viability, T/C (compound 0.001 µM) is 101% and 102%; the viability, T/C (compound 0.00316 µM) was 110% and 100%; the viability, T/C (compound 0.01 µM) was 114% and 107%; the viability, T/C (compound 0.0316 µM) was 75.9% and 69.7%; the viability, T/C (compound 0.1 µM) is 10.2% and 9.97%. Further, under “curve of compound”, the pIC50 was 7.30 and 7.34.

Consider `CC(C)NCC(C(=O)N1CCN(c2ncnc3c2C(C)CC3O)CC1)c1ccc(Cl)cc1` (stereo not drawn), for which the viability, T/C (compound 0.3 µM) is 93.8% [middle of 10 runs]. Further, the pIC50 runs as follows: (compound alone, run of 02/20/2020) below 4.52; (compound alone, run of 03/19/2020) below 4.52.

Regarding `CC(C)n1nc(-c2ccc3oc(N)nc3c2)c2c(N)ncnc21`, the viability, T/C was 93.6% and 99.9% (compound 0.000316 µM); 95% and 91.3% (compound 0.001 µM); 86% and 98.5% (compound 0.00316 µM); 85.3% and 94.8% (compound 0.01 µM); 83.2% and 81.7% (compound 0.0316 µM); 73.8% and 70.4% (compound 0.1 µM). Moreover, the pIC50 (curve of compound) was below 7.00.

With `CCCS(=O)(=O)Nc1ccc(F)c(C(=O)c2c[nH]c3ncc(-c4ccc(Cl)cc4)cc23)c1F`, the viability, T/C by setting is: (compound 0.316 µM) 92.9% and 82.9%; (compound 1 µM) 101% and 67%; (compound 3.16 µM) 88.1% and 85%; (compound 10 µM) 101% and 75%; (compound 31.6 µM) 109% and 51.8%; (compound 100 µM) 99.2% and 114%. The pIC50 (curve of compound) is below 4.00.

In the case of `COC1CC2CCC(C)C(O)(O2)C(=O)C(=O)N2CCCCC2C(=O)OC(C(C)CC2CCC(OCCO)C(OC)C2)CC(=O)C(C)C=C(C)C(O)C(OC)C(=O)C(C)CC(C)C=CC=CC=C1C` (stereo not drawn), the viability, T/C is, setting by setting: (compound 0.000316 µM) 93.2% and 99%; (compound 0.001 µM) 107% and 78.7%; (compound 0.00316 µM) 105% and 85.4%; (compound 0.01 µM) 100% and 94.5%; (compound 0.0316 µM) 84.9% and 90.9%; (compound 0.1 µM) 84.3% and 82.4%. Under “curve of compound”, the pIC50 is below 7.00.

For the compound `COc1c(OCCCN2CCOCC2)ccc2c3n(c(=NC(=O)c4cnc(N)nc4)nc12)CCN3`, the viability, T/C by setting is: (compound 0.00316 µM) 85.3% and 76.8%; (compound 0.01 µM) 79.2% and 62.1%; (compound 0.0316 µM) 61.2% and 49.2%; (compound 0.1 µM) 47.5% and 35.9%; (compound 0.316 µM) 30.7% and 23.5%; (compound 1 µM) 23.3% and 18.5%. Where the note is “curve of compound”, the negative-log IC50 (pIC50) is 7.12 and 7.55.

On to `Cc1nc(NC(=O)N2CCCC2C(N)=O)sc1-c1ccnc(C(C)(C)C(F)(F)F)c1` (stereo not drawn), for which the viability, T/C runs as follows: (compound 0.0316 µM) 82.3% and 93.5%; (compound 0.1 µM) 87.3% and 82%; (compound 0.316 µM) 73.3% and 81.9%; (compound 1 µM) 68.2% and 77.4%; (compound 3.16 µM) 72.5% and 67%; (compound 10 µM) 58.3% and 54.9%. Moreover, the negative-log IC50 (pIC50) (curve of compound) was below 5.00.

Take `Cn1cnc2c(F)c(Nc3ccc(Br)cc3Cl)c(C(=O)NOCCO)cc21`: the viability, T/C reads like this: (compound 0.00949 µM) 99.2% and 99.6%; (compound 0.03 µM) 88.9% and 88%; (compound 0.0949 µM) 77.6% and 83%; (compound 0.3 µM) 85.5% and 82.2%; (compound 0.949 µM) 56.9% and 70.8%; (compound 3 µM) 41.5% and 53.7%. Where the note is “curve of compound”, the pIC50 was 5.74 and < 5.52.
